Measured values from EP4745137A1 (Gluetacs Therapeutics (Shanghai) Co., Ltd., priority 2023, dated 2025).

Experiments:
WEE1 = biological target: T1, WEE1 (Homo sapiens, UniProt P30291+Q96SW2); experiment: Western-blot assay of substrate protein degradation in hPBMCs, WEE1; type: cell-based; settings: 24 hours of compound treatment, compounds tested at 50 nM and 500 nM (concentration of the table not stated)
T1 construct: endogenous in cells; host or cells: hPBMCs (Milecell Biotechnologies)

IKZF1 = biological target: T2, IKZF1 (Homo sapiens, UniProt Q13422+Q96SW2); experiment: Western-blot assay of substrate protein degradation in hPBMCs, IKZF1; type: cell-based; settings: 24 hours of compound treatment, compounds tested at 50 nM and 500 nM (concentration of the table not stated)
T2 construct: endogenous in cells; host or cells: hPBMCs (Milecell Biotechnologies)

IKZF2 = biological target: T3, IKZF2 (Homo sapiens, UniProt Q96SW2+Q9UKS7); experiment: Western-blot assay of substrate protein degradation in hPBMCs, IKZF2; type: cell-based; settings: 24 hours of compound treatment, compounds tested at 50 nM and 500 nM (concentration of the table not stated)
T3 construct: endogenous in cells; host or cells: hPBMCs (Milecell Biotechnologies)

IKZF3 = biological target: T4, IKZF3 (Homo sapiens, UniProt Q96SW2+Q9UKT9); experiment: Western-blot assay of substrate protein degradation in hPBMCs, IKZF3; type: cell-based; settings: 24 hours of compound treatment, compounds tested at 50 nM and 500 nM (concentration of the table not stated)
T4 construct: endogenous in cells; host or cells: hPBMCs (Milecell Biotechnologies)

CK1α = biological target: T5, CK1α (Homo sapiens, UniProt P48729+Q96SW2); experiment: Western-blot assay of substrate protein degradation in hPBMCs, CK1α; type: cell-based; settings: 24 hours of compound treatment, compounds tested at 50 nM and 500 nM (concentration of the table not stated)
T5 construct: endogenous in cells; host or cells: hPBMCs (Milecell Biotechnologies)

GSPT1 = biological target: T6, GSPT1 (Homo sapiens, UniProt P15170+Q96SW2); experiment: Western-blot assay of substrate protein degradation in hPBMCs, GSPT1; type: cell-based; settings: 24 hours of compound treatment, compounds tested at 50 nM and 500 nM (concentration of the table not stated)
T6 construct: endogenous in cells; host or cells: hPBMCs (Milecell Biotechnologies)

[1] = biological target: T7, human Cereblon WT GST-tagged protein (Homo sapiens, UniProt Q96SW2); experiment: CRBN-binding affinity by HTRF (CEREBLON BINDING kit); settings: HTRF inhibitory activity, CEREBLON BINDING kit; read-out: HTRF IC50
T7 construct: purchased CISBIO 64BDCRBNPEH
T7 sequence (Q96SW2 whole entry): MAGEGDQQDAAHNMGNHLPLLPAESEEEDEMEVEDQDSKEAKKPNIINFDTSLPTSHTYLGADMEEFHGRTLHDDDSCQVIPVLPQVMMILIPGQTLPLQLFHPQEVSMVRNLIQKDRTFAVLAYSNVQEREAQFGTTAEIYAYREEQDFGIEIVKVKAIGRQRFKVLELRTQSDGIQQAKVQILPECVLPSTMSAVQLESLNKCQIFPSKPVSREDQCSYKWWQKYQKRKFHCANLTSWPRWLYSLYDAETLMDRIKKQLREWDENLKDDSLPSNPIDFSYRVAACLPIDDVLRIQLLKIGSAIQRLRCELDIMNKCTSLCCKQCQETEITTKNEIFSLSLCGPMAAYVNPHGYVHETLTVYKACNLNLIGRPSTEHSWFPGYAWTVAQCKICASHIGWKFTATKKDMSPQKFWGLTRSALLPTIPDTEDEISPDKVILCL

T6 sequence (P15170 whole entry): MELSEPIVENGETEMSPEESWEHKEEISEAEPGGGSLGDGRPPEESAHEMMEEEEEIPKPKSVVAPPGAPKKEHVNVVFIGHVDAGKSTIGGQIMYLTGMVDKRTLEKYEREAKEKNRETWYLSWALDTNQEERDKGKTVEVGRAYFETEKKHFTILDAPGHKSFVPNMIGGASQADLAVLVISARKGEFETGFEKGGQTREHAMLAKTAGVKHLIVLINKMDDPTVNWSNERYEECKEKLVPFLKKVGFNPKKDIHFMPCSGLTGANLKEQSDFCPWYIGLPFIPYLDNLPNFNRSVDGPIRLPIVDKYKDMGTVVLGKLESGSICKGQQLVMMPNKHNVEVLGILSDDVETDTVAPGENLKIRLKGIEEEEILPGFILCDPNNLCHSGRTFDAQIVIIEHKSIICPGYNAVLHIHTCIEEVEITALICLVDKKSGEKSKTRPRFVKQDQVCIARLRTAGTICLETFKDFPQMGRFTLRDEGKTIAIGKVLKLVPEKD
T6 sequence (Q96SW2 whole entry): as the sequence (Q96SW2 whole entry) above
T6 sequence (Q16531 whole entry partner): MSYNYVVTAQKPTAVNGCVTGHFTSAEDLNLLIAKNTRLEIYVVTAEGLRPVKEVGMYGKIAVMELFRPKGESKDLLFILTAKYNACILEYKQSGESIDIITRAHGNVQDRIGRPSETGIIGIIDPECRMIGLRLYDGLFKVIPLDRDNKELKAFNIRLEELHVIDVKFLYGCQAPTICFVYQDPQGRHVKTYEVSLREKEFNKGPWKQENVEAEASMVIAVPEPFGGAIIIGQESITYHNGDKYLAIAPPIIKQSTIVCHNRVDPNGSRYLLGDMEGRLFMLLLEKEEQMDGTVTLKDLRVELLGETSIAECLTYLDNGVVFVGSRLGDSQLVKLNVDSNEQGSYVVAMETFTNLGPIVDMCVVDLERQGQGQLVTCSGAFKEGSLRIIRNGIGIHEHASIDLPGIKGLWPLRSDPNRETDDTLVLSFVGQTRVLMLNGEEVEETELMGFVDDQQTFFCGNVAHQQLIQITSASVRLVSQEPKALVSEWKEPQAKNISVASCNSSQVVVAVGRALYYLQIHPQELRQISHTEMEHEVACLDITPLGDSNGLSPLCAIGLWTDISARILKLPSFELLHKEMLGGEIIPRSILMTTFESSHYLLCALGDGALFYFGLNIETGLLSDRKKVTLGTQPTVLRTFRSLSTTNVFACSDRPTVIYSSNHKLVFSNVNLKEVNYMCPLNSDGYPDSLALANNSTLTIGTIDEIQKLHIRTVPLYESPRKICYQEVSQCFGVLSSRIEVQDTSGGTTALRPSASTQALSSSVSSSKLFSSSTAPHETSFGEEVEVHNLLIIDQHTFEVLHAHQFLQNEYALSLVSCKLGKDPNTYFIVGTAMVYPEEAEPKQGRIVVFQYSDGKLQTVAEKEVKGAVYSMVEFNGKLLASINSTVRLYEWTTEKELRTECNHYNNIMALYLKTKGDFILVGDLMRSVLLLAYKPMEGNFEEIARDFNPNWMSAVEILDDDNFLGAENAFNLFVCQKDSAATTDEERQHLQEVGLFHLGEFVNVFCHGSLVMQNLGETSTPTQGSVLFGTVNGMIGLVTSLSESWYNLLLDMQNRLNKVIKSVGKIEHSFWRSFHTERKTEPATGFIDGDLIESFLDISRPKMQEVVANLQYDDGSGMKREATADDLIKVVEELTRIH
T2 sequence (Q13422 whole entry): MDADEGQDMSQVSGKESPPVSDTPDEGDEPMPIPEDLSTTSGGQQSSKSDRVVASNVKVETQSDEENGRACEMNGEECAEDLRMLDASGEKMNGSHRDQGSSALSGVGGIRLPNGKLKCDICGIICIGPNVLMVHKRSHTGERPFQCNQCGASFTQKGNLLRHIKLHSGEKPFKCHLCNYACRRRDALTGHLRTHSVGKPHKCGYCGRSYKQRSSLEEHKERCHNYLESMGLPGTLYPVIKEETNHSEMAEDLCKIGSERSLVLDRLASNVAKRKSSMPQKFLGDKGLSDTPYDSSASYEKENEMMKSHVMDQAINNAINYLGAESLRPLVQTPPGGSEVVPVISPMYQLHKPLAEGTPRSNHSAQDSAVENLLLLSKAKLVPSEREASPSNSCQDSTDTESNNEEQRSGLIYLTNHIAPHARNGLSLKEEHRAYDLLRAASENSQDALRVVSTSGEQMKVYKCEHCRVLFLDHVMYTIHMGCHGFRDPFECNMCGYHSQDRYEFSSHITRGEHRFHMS
T2 sequence (Q96SW2 whole entry): as the sequence (Q96SW2 whole entry) above
T2 sequence (Q16531 whole entry partner): as the sequence (Q16531 whole entry partner) above
T1 sequence (P30291 whole entry): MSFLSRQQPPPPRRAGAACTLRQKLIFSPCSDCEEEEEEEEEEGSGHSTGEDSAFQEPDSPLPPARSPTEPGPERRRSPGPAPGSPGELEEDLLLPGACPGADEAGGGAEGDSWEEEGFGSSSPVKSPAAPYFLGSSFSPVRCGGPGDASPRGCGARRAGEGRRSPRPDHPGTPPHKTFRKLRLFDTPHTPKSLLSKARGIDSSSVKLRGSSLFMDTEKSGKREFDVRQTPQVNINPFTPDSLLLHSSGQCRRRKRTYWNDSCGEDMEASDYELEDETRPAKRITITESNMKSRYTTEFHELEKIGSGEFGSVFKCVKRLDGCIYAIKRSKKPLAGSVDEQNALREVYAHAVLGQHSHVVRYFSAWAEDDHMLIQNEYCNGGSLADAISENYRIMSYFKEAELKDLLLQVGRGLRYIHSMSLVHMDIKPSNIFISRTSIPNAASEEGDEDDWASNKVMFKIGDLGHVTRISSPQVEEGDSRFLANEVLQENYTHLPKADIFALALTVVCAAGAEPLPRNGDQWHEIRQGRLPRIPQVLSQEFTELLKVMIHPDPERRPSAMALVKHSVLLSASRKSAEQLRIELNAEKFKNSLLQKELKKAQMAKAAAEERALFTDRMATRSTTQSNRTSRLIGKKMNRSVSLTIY
T1 sequence (Q96SW2 whole entry): as the sequence (Q96SW2 whole entry) above
T1 sequence (Q16531 whole entry partner): as the sequence (Q16531 whole entry partner) above
T3 sequence (Q9UKS7 whole entry): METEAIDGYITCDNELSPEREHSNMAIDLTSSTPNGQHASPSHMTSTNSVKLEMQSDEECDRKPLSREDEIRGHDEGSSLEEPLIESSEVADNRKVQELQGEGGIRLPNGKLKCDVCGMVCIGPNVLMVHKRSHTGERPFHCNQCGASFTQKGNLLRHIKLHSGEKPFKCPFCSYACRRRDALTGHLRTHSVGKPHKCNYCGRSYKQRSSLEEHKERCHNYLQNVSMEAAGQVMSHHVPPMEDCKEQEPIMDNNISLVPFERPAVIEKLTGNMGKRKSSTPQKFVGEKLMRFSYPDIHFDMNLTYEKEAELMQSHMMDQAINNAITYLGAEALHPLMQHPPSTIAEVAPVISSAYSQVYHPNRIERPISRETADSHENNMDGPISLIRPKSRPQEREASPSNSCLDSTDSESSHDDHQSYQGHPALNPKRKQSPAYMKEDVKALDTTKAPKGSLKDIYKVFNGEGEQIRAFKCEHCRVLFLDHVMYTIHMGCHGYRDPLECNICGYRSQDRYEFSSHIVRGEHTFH
T3 sequence (Q96SW2 whole entry): as the sequence (Q96SW2 whole entry) above
T3 sequence (Q16531 whole entry partner): as the sequence (Q16531 whole entry partner) above
T5 sequence (P48729 whole entry): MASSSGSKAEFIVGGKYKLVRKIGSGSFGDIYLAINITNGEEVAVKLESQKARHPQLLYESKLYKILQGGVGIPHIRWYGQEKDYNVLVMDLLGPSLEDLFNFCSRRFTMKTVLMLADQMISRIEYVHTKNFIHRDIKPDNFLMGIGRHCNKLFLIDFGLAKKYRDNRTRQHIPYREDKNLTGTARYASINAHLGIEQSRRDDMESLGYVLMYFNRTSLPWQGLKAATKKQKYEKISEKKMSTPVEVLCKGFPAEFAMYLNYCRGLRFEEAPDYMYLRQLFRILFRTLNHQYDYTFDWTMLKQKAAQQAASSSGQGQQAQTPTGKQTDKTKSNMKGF
T5 sequence (Q96SW2 whole entry): as the sequence (Q96SW2 whole entry) above
T5 sequence (Q16531 whole entry partner): as the sequence (Q16531 whole entry partner) above

Row | SMILES | Weel substrate protein remaining % (WEE1) | IKZF 1 substrate protein remaining % (IKZF1) | IKZF2 substrate protein remaining % (IKZF2) | IKZF3 substrate protein remaining % (IKZF3) | CK1a substrate protein remaining % (CK1α) | GSPT1 substrate protein remaining % (GSPT1) | IC50 [1]
1 | O=C1CCC(N2Cc3cc(CN4CCN(c5noc6cc(F)ccc56)CC4)ccc3C2=O)C(=O)N1 (stereo not drawn) [GT-04667, 3-(5-((4-(6-fluorobenzo[d]isoxazol-3-yl)piperazin-1-yl)methyl)-1-oxoisoindolin-2-yl)piperidine-2,6-dione] | A (0% ≤ substrate protein remaining % ≤ 80%) | A (0% ≤ substrate protein remaining % ≤ 80%) | A (0% ≤ substrate protein remaining % ≤ 80%) | A (0% ≤ substrate protein remaining % ≤ 80%) | B (80%< substrate protein remaining %≤ 100%) | A (0% ≤ substrate protein remaining % ≤ 80%) | 500 to 1000 nM
2 | O=C1CCC(N2Cc3cc(CN4CC(N5CCc6cc(F)ccc65)C4)ccc3C2=O)C(=O)N1 (stereo not drawn) [GT-04677, 3-(5-((3-(5-fluoroindolin-1-yl)azetidin-1-yl)methyl)-1-oxoisoindolin-2-yl)piperidine-2,6-dione] | A (0% ≤ substrate protein remaining % ≤ 80%) | A (0% ≤ substrate protein remaining % ≤ 80%) | A (0% ≤ substrate protein remaining % ≤ 80%) | A (0% ≤ substrate protein remaining % ≤ 80%) | B (80%< substrate protein remaining %≤ 100%) | A (0% ≤ substrate protein remaining % ≤ 80%) | < 500 nM
3 | O=C1CCC(N2Cc3cc(CN4CCN(c5ncnc6sccc56)CC4)ccc3C2=O)C(=O)N1 (stereo not drawn) [GT-04678, 3-(1-oxo-5-((4-(thieno[2,3-d]pyrimidin-4-yl)piperazin-1-yl)methyl)isoindolin-2-yl)piperidine-2,6-dione] | A (0% ≤ substrate protein remaining % ≤ 80%) | A (0% ≤ substrate protein remaining % ≤ 80%) | A (0% ≤ substrate protein remaining % ≤ 80%) | A (0% ≤ substrate protein remaining % ≤ 80%) | B (80%< substrate protein remaining %≤ 100%) | A (0% ≤ substrate protein remaining % ≤ 80%) | 500 to 1000 nM
4 | Cc1csc2ncnc(N3CCN(Cc4ccc5c(c4)CN(C4CCC(=O)NC4=O)C5=O)CC3)c12 (stereo not drawn) [GT-04679, 3-(5-((4-(5-methylthieno[2,3-d]pyrimidin-4-yl)piperazin-1-yl)methyl)-1-oxoisoindolin-2-yl)piperidine-2,6-dione] | B (80%< substrate protein remaining %≤ 100%) | B (80%< substrate protein remaining %≤ 100%) | B (80%< substrate protein remaining %≤ 100%) | B (80%< substrate protein remaining %≤ 100%) | A (0% ≤ substrate protein remaining % ≤ 80%) | A (0% ≤ substrate protein remaining % ≤ 80%) | 500 to 1000 nM
5 | Cc1cc2c(N3CCN(Cc4ccc5c(c4)CN(C4CCC(=O)NC4=O)C5=O)CC3)ncnc2s1 (stereo not drawn) [GT-04680, 3-(5-((4-(6-methylthieno[2,3-d]pyrimidin-4-yl)piperazin-1-yl)methyl)-1-oxoisoindolin-2-yl)piperidine-2,6-dione] | B (80%< substrate protein remaining %≤ 100%) | B (80%< substrate protein remaining %≤ 100%) | B (80%< substrate protein remaining %≤ 100%) | B (80%< substrate protein remaining %≤ 100%) | A (0% ≤ substrate protein remaining % ≤ 80%) | A (0% ≤ substrate protein remaining % ≤ 80%) | 500 to 1000 nM
6 | O=C1CCC(N2Cc3cc(CN4CCN(c5ncnc6ccsc56)CC4)ccc3C2=O)C(=O)N1 (stereo not drawn) [GT-04681, 3-(1-oxo-5-((4-(thieno[3,2-d]pyrimidin-4-yl)piperazin-1-yl)methyl)isoindolin-2-yl)piperidine-2,6-dione] | B (80%< substrate protein remaining %≤ 100%) | B (80%< substrate protein remaining %≤ 100%) | B (80%< substrate protein remaining %≤ 100%) | B (80%< substrate protein remaining %≤ 100%) | A (0% ≤ substrate protein remaining % ≤ 80%) | A (0% ≤ substrate protein remaining % ≤ 80%) | 500 to 1000 nM
7 | O=C1CCC(N2Cc3cc(CN4CCN(c5nc(Cl)nc6ccsc56)CC4)ccc3C2=O)C(=O)N1 (stereo not drawn) [GT-04682, 3-(5-((4-(2-chlorothieno[3,2-d]pyrimidin-4-yl)piperazin-1-yl)methyl)-1-oxoisoindolin-2-yl)piperidine-2,6-dione] | B (80%< substrate protein remaining %≤ 100%) | B (80%< substrate protein remaining %≤ 100%) | B (80%< substrate protein remaining %≤ 100%) | B (80%< substrate protein remaining %≤ 100%) | A (0% ≤ substrate protein remaining % ≤ 80%) | A (0% ≤ substrate protein remaining % ≤ 80%) | 500 to 1000 nM
8 | Cc1nc(N2CCN(Cc3ccc4c(c3)CN(C3CCC(=O)NC3=O)C4=O)CC2)c2ccsc2n1 (stereo not drawn) [GT-04693, 3-(5-((4-(2-methylthieno[2,3-d]pyrimidin-4-yl)piperazin-1-yl)methyl)-1-oxoisoindolin-2-yl)piperidine-2,6-dione] | A (0% ≤ substrate protein remaining % ≤ 80%) | B (80%< substrate protein remaining %≤ 100%) | A (0% ≤ substrate protein remaining % ≤ 80%) | A (0% ≤ substrate protein remaining % ≤ 80%) | B (80%< substrate protein remaining %≤ 100%) | A (0% ≤ substrate protein remaining % ≤ 80%) | < 500 nM
9 | O=C1CCC(N2Cc3cc(CN4CCN(c5nc6c(c(N7CCOCC7)n5)SCC6)CC4)ccc3C2=O)C(=O)N1 (stereo not drawn) [GT-04694, 3-(5-((4-(4-morpholino-6,7-dihydrothieno[3,2-d]pyrimidin-2-yl)piperazin-1-yl)methyl)-1-oxoisoindolin-2-yl)piperidine-2,6-dione] | A (0% ≤ substrate protein remaining % ≤ 80%) | B (80%< substrate protein remaining %≤ 100%) | A (0% ≤ substrate protein remaining % ≤ 80%) | A (0% ≤ substrate protein remaining % ≤ 80%) | B (80%< substrate protein remaining %≤ 100%) | A (0% ≤ substrate protein remaining % ≤ 80%) | < 500 nM
10 | O=C1CCC(N2Cc3cc(CN4CCN(c5nc(N6CCNCC6)c6sccc6n5)CC4)ccc3C2=O)C(=O)N1 (stereo not drawn) [GT-04698, 3-(1-oxo-5-((4-(4-(piperazin-1-yl)thieno[3,2-d]pyrimidin-2-yl)piperazin-1-yl)methyl)isoindolin-2-yl)piperidine-2,6-dione] | A (0% ≤ substrate protein remaining % ≤ 80%) | A (0% ≤ substrate protein remaining % ≤ 80%) | A (0% ≤ substrate protein remaining % ≤ 80%) | A (0% ≤ substrate protein remaining % ≤ 80%) | B (80%< substrate protein remaining %≤ 100%) | A (0% ≤ substrate protein remaining % ≤ 80%) | 500 to 1000 nM
11 | O=C1CCC(N2Cc3cc(CN4CC(C5CCOc6cc(F)ccc65)C4)ccc3C2=O)C(=O)N1 (stereo not drawn) [GT-04700, 3-(5-((3-(7-fluorochroman-4-yl)azetidin-1-yl)methyl)-1-oxoisoindolin-2-yl)piperidine-2,6-dione] | B (80%< substrate protein remaining %≤ 100%) | A (0% ≤ substrate protein remaining % ≤ 80%) | A (0% ≤ substrate protein remaining % ≤ 80%) | A (0% ≤ substrate protein remaining % ≤ 80%) | B (80%< substrate protein remaining %≤ 100%) | A (0% ≤ substrate protein remaining % ≤ 80%) | 500 to 1000 nM
12 | O=C1CCC(N2Cc3cc(CN4CCC(c5ncnc6sccc56)CC4)ccc3C2=O)C(=O)N1 (stereo not drawn) [GT-04702, 3-(1-oxo-5-((4-(thieno[2,3-d]pyrimidin-4-yl)piperidin-1-yl)methyl)isoindolin-2-yl)piperidine-2,6-dione] | B (80%< substrate protein remaining %≤ 100%) | A (0% ≤ substrate protein remaining % ≤ 80%) | A (0% ≤ substrate protein remaining % ≤ 80%) | A (0% ≤ substrate protein remaining % ≤ 80%) | B (80%< substrate protein remaining %≤ 100%) | A (0% ≤ substrate protein remaining % ≤ 80%) | 500 to 1000 nM
